Experimental data reported in US20090221581A1, “Methods of treating pain” (priority 2005, published 2009).
“Also recorded” adds a separate entry of the source.

Columns and labels:
formalin-treated mice = assay: Formalin assay, licking behaviour; type: in vivo; conditions: 30 mg/kg i.p. 30 min before formalin injection
Method: The formalin assay in mice is a valid and reliable behavioral model of nociception and is sensitive to various classes of analgesic drugs (Hunskaar S & Hole K, Pain. 1987, 30(1):103-14.) The noxious stimulus consists of a subcutaneous or an intraplantar injection of 10 μl diluted formalin (2% in saline) into the left hind paw. The response is licking and flinching of the injected paw.
Age, sex and weight matched wildtype mice (C3HeB/FeJ) were used in this assay. Prior to formalin injection, the animals were randomly subdivided into experimental groups of 10 animals each. […]
For formalin injection, the mouse was held with a paper towel in order to avoid disturbance of the injection by movements. […] The behavior of the formalin- and CDK-inhibitor-treated mice was analyzed as described below.
The behaviour of the formalin-treated mice, i.e. licking and flinching, was monitored by an automated tracking system (Ethovision 3.0 Color Pro, Noldus, Wageningen, Netherlands) over a defined period of time: measurement was initiated 5 min after formalin injection and terminated 30 min after formalin injection. […]
As another possibility of assay read-out, the licking behaviour of the individual animals was tracked manually based on video files. Licking times were recorded over 30 minutes after formalin injection and subdivided for three different licking zones (dorsum, plantar, toes). […]

CDK7/CycH/MAT1 = target: T1, CDK7/CycH/MAT1 (Homo sapiens, UniProt P50613); assay: In vitro kinase inhibition assay, CDK7/CycH/MAT1; type: biochemical
T1 construct: made in house; host or cells: Sf9 insect cells, baculovirus
T1 sequence (P50613 whole entry): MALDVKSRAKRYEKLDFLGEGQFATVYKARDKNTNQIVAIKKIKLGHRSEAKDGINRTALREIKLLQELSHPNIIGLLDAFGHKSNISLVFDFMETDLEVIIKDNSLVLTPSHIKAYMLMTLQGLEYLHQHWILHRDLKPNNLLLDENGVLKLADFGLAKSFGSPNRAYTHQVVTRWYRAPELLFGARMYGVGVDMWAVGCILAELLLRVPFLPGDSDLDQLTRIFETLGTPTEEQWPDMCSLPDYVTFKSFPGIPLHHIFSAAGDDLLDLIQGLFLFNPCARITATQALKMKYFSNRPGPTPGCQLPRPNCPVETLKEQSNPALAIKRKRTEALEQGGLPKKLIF
T1 sequence (P51946 whole entry partner): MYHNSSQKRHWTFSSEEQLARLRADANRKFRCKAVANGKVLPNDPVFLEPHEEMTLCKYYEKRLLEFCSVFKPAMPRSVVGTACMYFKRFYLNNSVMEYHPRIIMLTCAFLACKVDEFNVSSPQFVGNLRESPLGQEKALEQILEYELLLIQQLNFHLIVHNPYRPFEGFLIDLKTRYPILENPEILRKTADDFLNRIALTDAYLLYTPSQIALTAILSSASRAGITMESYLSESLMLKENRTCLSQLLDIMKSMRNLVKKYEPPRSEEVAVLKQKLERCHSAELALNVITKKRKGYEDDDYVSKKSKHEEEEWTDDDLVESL
T1 sequence (P51948 whole entry partner): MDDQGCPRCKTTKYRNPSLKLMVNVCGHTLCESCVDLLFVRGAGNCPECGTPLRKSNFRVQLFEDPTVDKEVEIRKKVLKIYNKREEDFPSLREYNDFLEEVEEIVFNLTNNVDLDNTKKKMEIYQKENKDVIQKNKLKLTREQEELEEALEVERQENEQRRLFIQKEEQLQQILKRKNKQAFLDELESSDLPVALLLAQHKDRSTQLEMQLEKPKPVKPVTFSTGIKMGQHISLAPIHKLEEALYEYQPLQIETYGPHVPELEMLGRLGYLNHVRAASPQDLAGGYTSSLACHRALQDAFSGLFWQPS

CDK9/CycT = target: T2, CDK9/CycT (Homo sapiens, UniProt P50750); assay: In vitro kinase inhibition assay, CDK9/CycT; type: biochemical
T2 construct: host or cells: Sf9 insect cells, baculovirus
T2 sequence (P50750 whole entry): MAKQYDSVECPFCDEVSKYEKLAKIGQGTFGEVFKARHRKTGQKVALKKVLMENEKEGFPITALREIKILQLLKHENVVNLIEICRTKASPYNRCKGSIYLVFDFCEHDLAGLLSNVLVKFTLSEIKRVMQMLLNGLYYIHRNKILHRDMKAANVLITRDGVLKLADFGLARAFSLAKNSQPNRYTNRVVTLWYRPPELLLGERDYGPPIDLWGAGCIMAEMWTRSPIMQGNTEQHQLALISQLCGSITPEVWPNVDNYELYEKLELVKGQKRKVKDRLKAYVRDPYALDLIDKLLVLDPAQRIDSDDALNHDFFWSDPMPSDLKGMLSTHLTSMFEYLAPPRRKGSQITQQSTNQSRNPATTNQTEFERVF
T2 sequence (O60563 whole entry partner): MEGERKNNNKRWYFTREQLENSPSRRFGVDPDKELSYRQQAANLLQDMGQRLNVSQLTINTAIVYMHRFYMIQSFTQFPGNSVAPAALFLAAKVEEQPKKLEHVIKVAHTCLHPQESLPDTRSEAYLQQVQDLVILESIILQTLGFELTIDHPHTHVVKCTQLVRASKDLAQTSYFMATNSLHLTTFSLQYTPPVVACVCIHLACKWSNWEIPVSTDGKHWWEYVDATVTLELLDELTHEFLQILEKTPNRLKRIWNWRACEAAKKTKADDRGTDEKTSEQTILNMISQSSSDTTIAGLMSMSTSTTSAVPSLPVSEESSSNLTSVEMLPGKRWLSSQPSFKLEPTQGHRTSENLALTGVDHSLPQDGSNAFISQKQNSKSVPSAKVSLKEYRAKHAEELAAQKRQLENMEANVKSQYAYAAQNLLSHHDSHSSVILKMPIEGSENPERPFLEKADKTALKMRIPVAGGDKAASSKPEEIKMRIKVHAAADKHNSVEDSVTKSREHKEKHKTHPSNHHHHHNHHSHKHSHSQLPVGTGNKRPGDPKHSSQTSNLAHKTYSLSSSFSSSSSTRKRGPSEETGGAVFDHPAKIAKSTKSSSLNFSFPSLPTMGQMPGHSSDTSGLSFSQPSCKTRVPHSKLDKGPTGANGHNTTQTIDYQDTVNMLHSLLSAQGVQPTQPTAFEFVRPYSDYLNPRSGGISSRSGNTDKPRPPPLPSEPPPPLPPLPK
Method: In vitro kinase inhibition assays may be performed according to the following protocol:
Compounds are used as 1×10^−02 M stock solutions in 100% DMSO, 100 μl each in column 2 of three 96-well V-shaped microtiter plates (in the following, said plates are referred to as “master plates”).
Subsequently, the 1×10^−02 M stock solutions in column 2 of the master plates are subjected to a serial, semi-logarithmic dilution using 100% DMSO as a solvent, resulting in 10 different concentrations, the dilution endpoint being 3×10^−07 M/100% DMSO in column 12. Column 1 and 7 are filled with 100% DMSO as controls. […]
For the determination of inhibitory profiles, the following protein kinases were used: CDK2/CycA, CDK4/CycD1, CDK6/CycD1 and CDK9/CycT. […] The purity of each kinase is determined by SDS-PAGE/silver staining and the identity of each kinase is verified by western blot analysis with kinase specific antibodies or by mass spectroscopy. […]
Reaction mixtures are incubated at 30° C. for 80 minutes. […] Incorporation of ^33P is determined with a microplate scintillation counter (Microbeta, Wallac). […]
The median value of the counts in column 1 (n=8) of each assay plate is defined as “low control”. This value reflects unspecific binding of radioactivity to the plate in the absence of a protein kinase but in the presence of the substrate. […]

CDK3/CycE = target: T3, CDK3/CycE (Homo sapiens, UniProt Q00526); assay: In vitro kinase inhibition assay, CDK3/CycE; type: biochemical
T3 construct: made in house; host or cells: Sf9 insect cells, baculovirus
T3 sequence (Q00526 whole entry): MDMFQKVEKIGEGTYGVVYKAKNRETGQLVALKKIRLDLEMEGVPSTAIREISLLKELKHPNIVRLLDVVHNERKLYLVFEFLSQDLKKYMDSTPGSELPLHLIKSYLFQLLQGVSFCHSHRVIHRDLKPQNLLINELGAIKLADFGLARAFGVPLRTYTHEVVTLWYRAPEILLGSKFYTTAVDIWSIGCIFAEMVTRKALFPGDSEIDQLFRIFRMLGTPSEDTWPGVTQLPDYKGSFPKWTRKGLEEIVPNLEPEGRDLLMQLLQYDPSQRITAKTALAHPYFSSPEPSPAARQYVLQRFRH
T3 sequence (P24864 whole entry partner): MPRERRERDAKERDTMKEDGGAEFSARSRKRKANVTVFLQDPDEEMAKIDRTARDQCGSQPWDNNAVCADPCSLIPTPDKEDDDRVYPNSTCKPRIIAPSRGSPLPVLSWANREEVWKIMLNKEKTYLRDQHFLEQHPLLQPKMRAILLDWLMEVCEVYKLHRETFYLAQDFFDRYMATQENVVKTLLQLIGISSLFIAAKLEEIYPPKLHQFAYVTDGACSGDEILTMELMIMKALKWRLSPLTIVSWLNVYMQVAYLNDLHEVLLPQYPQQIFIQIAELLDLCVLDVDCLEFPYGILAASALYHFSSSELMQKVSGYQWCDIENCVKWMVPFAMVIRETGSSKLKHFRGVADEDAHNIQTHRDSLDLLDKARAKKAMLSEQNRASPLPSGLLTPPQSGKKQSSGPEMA

IC50 (CDK7/CycH/MAT1): 10 µM
IC50 (CDK9/CycT; CDK9/CycT): 0.63 µM
specificity for CDK9 over other CDKs (CDK9/CycT; from IC50 values of Table 1): high specificity for CDK9
IC50 (CDK3/CycE): 18.5 µM
Structure (SMILES): COc1ccccc1-c1cc(Nc2cccc(S(N)(=O)=O)c2)ncn1 [Compound A]
fluorescent dot size of the formalin-treated paw (formalin-treated mice): no significant reduction of fluorescent dot size
licking time (formalin-treated mice; vs vehicle, 30 mg/kg): reduction in licking time; also recorded: clearly reduced
